Laboratory results published in US12098151B2 (priority 2018, dated 2024).
“And” between values parts separate entries of the source, which are not always exact repeats. Equal entries are not always repeated. Where two headings read alike, the source gives them in different places.

How the values were obtained:
Junin virus = assay: microbe, parasite or virus in culture; assay type: cell-based
LCMV = assay: microbe, parasite or virus in culture; assay type: cell-based, lymphocytic choriomeningitis virus (LCMV)
[1] = test system: Lassa virus (Josiah strain); assay type: cell-based
[2] = test system: Lassa virus (LF2384 strain); assay: microbe, parasite or virus in culture; assay type: cell-based; conditions: Mammarenavirus lassaense, Vero, 72 h, read-out: Log10 of IC90 (nM) (converted)
[3] = Mammarenavirus juninense, HEK-293T, 96 h
[4] = Mammarenavirus choriomeningitidis, KB, 96 h

Compound | EC50 (Junin virus; [3]) [nM] | EC50 (LCMV; [4]) [nM] | further results
CC(C)N1CN(C2c3ccccc3CCc3ccccc32)n2cc(C(=O)O)c(=O)c(O)c2C1=O [Compound I-021] | 8.2 | 2 | Lassa virus proliferation inhibitory effect compared with control compound Ribavirin [1]: significantly stronger Lassa virus proliferation inhibitory effect than the control compound Ribavirin; Virus infectivity titer (24 h.p.i., PFU/ml) [1]: 5 × 10^4 PFU/ml and <10 PFU/ml; Virus infectivity titer (48 h.p.i., PFU/ml) [1]: 5 × 10^6 PFU/ml and 5 × 10^3 PFU/ml; IC90 [2]: 3.1 nM
CCN1CN(C2c3ccccc3CCc3ccccc32)n2cc(C(=O)O)c(=O)c(O)c2C1=O [Compound I-078] | 3.3 | 6.2 | IC90 [2]: 3.14 nM
O=C(O)c1cn2c(c(O)c1=O)C(=O)N(Cc1ccc(F)cc1F)CN2C1c2ccccc2CCc2ccccc21 [Compound I-081] | 6.1 | 24 | 
O=C(O)c1cn2c(c(O)c1=O)C(=O)N(C1CC1)CN2C1c2ccccc2CCc2ccccc21 [II-001] | 4.5 | 8.1 | 
O=C(O)c1cn2c(c(O)c1=O)C(=O)N(C[C@@H]1CCCO1)CN2C1c2ccccc2CCc2ccccc21 [II-002] | 12 | 7.1 | 
O=C(O)c1cn2c(c(O)c1=O)C(=O)N(CC1CC1)CN2C1c2ccccc2CCc2ccccc21 [II-003] | 6.7 | 8 | IC90 [2]: 2.53 nM
CN1CN(C2c3ccccc3CCc3ccccc32)n2cc(C(=O)O)c(=O)c(O)c2C1=O [II-004] | 9.2 | 24 | 
CC(C)N1CN(C2c3ccccc3Oc3ccccc32)n2cc(C(=O)O)c(=O)c(O)c2C1=O [III-001] | 110 | 19 | 
CC(C)N1CN(C2c3ccccc3C=Cc3ccccc32)n2cc(C(=O)O)c(=O)c(O)c2C1=O [III-002] | 4.4 | 11 | 
CC(C)N1CN(C2c3ccccc3CCc3ccccc32)n2cc(C(N)=O)c(=O)c(O)c2C1=O [III-003] | 302 | 676 | 
CON(C)C(=O)c1cn2c(c(O)c1=O)C(=O)N(C(C)C)CN2C1c2ccccc2CCc2ccccc21 [III-004] | 21 | 27 | 
CC(C)N1CN(Cc2ccccc2CCc2ccccc2)n2cc(C(=O)O)c(=O)c(O)c2C1=O [III-005] | 243 | 90 | 
CCCCCN1CN(C2c3ccccc3CCc3ccccc32)n2cc(C(=O)O)c(=O)c(O)c2C1=O [III-006] | 9.4 | 25 | 
O=C(O)c1cn2c(c(O)c1=O)C(=O)N(CC1CCOCC1)CN2C1c2ccccc2CCc2ccccc21 [III-007] | 16 | 14 | 
COc1ccc(CN2CN(C3c4ccccc4CCc4ccccc43)n3cc(C(=O)O)c(=O)c(O)c3C2=O)cc1 [III-008] | 14 | 19 | 
O=C(O)c1cn2c(c(O)c1=O)C(=O)N(Cc1ccc(F)cc1Cl)CN2C1c2ccccc2CCc2ccccc21 [III-009] | 19 | 37 | 
O=C(O)c1cn2c(c(O)c1=O)C(=O)N(CCc1ccc(F)cc1F)CN2C1c2ccccc2CCc2ccccc21 [III-011] | 97 | 55 | 
O=C(O)c1cn2c(c(O)c1=O)C(=O)N(CC1CCCCC1)CN2C1c2ccccc2CCc2ccccc21 [III-012] | 21 | 38 | 
O=C(O)c1cn2c(c(O)c1=O)C(=O)N(CC1CC1)CN2C1c2ccccc2CSc2ccccc21 (stereo not drawn) [III-013] |  |  | EC50 (Junin virus): 3.7 nM; EC50 (LCMV): 3.3 nM
O=C(O)c1cn2c(c(O)c1=O)C(=O)N(CC1CC1)CN2C1c2ccccc2CSc2ccccc21 (stereo not drawn) [III-014] |  |  | EC50 (Junin virus): 276 nM; EC50 (LCMV): 130 nM
O=C(O)c1cn2c(c(O)c1=O)C(=O)N(CC1CCCC1)CN2C1c2ccccc2CCc2ccccc21 [III-015] | 25 | 17 | 

Compound | EC50 (Junin virus; [3]) [nM] | EC50 (LCMV; [4]) [nM] | further results
O=C(O)c1cn2c(c(O)c1=O)C(=O)N(CC1CCC1)CN2C1c2ccccc2CCc2ccccc21 [III-016] | 12 | 7.3 | 
O=C(O)c1cn2c(c(O)c1=O)C(=O)N(C(C1CC1)C1CC1)CN2C1c2ccccc2CCc2ccccc21 [III-017] | 4.9 | 4.4 | 
O=C(O)c1cn2c(c(O)c1=O)C(=O)N(CC1CC1)CN2C(c1ccc(-c2ccccc2)cc1)c1ccc(-c2ccccc2)cc1 [III-018] | 173 | 399 | 
CCN1CN(C2c3ccccc3CCc3ccccc32)n2nc(C(=O)O)c(=O)c(O)c2C1=O [III-019] | 72 | 39 | 
CC(C)N1CN(C2c3ccccc3CSc3ccccc32)n2cc(C(=O)O)c(=O)c(O)c2C1=O (stereo not drawn) [III-020] |  |  | EC50 (Junin virus): > 200 nM; EC50 (LCMV): 121 nM
CC(C)N1CN(C2c3ccccc3CSc3ccccc32)n2cc(C(=O)O)c(=O)c(O)c2C1=O (stereo not drawn) [III-021] |  |  | EC50 (Junin virus): 6.2 nM; EC50 (LCMV): 4.9 nM
CC(C)N1CN(C2c3ccc(F)cc3CCc3cc(F)ccc32)n2cc(C(=O)O)c(=O)c(O)c2C1=O [III-023] | 17 | 14 | 
Cc1ccc2c(c1)C(N1CN(C(C)C)C(=O)c3c(O)c(=O)c(C(=O)O)cn31)c1cc(C)ccc1CC2 [III-024] | > 200 | 83 | 
CC(C)N1CN(C2c3ccc(Cl)cc3CCc3cc(Cl)ccc32)n2cc(C(=O)O)c(=O)c(O)c2C1=O [III-025] | 31 | 17 | 
O=C(O)c1cn2c(c(O)c1=O)C(=O)N(CC1CC1)CN2C(c1ccccc1)c1ccccc1 [III-027] | 13 | 19 | 
O=C(O)c1cn2c(c(O)c1=O)C(=O)N(C(C1CC1)C1CC1)CN2C1c2ccccc2CSc2ccccc21 (stereo not drawn) [III-028] |  |  | EC50 (Junin virus): 2.4 nM; EC50 (LCMV): 2.1 nM
O=C(O)c1cn2c(c(O)c1=O)C(=O)N(C(C1CC1)C1CC1)CN2C1c2ccccc2CSc2ccccc21 (stereo not drawn) [III-029] |  |  | EC50 (Junin virus): 182 nM; EC50 (LCMV): 63 nM
O=C(O)c1cn2c(c(O)c1=O)C(=O)N(CC1CC1)CN2C(c1cccc(-c2ccccc2)c1)c1cccc(-c2ccccc2)c1 [III-030] | 18 | 78 | 
Cc1cccc2c1CCc1c(C)cccc1C2N1CN(CC2CC2)C(=O)c2c(O)c(=O)c(C(=O)O)cn21 [III-031] | 4.5 | 4.1 | 
Cc1cccc2c1CCc1c(C)cccc1C2N1CN(C(C2CC2)C2CC2)C(=O)c2c(O)c(=O)c(C(=O)O)cn21 [III-032] | 17 | 28 | 
Cc1cccc2c1CCc1c(C)cccc1C2N1CN(CC2CCC2)C(=O)c2c(O)c(=O)c(C(=O)O)cn21 [III-033] | 6.4 | 8.8 | 
O=C(O)c1cn2c(c(O)c1=O)C(=O)N(CC1CC1)CN2C1c2cccc(F)c2CCc2c(F)cccc21 [III-034] | 4.5 | 3.5 | 
O=C(O)c1cn2c(c(O)c1=O)C(=O)N(CC1CCC1)CN2C1c2cccc(F)c2CCc2c(F)cccc21 [III-035] | 9.6 | 7.2 | 
O=C(O)c1cn2c(c(O)c1=O)C(=O)N(C(C1CC1)C1CC1)CN2C1c2cccc(F)c2CCc2c(F)cccc21 [III-036] | 5.1 | 6.3 | 
NC(=O)c1ncn([C@@H]2O[C@H](CO)[C@@H](O)[C@H]2O)n1 [Ribavirin, reference compound] |  |  | Virus infectivity titer (48 h.p.i., PFU/ml) [1]: 9 × 10^4 PFU/ml and 6 × 10^6 PFU/ml and 5 × 10^6 PFU/ml
